Test results as given in patent US6407106B1, “N-triazolylmethyl-piperazine compounds with neurokinin-receptor antagonist activity” (Solvay Pharmaceuticals GmbH, priority 2000, dated 2002).

Legend:
[1] = Solubility in water; assay type: physicochemical
[2] = molecular target: T1, human NK-1 receptors (Homo sapiens, UniProt P25103); assay: Binding power of the test substances to NK-1 receptors in vitro ([3H]-Substance P displacement, CHO cell membranes); details: negative common logarithm of Ki calculated from IC50
T1 construct: expressed in transfected cells; host or cells: CHO cells (membrane preparation)
Description: The affinity of the test substances to human NK-1 receptors was measured in vitro. The inhibition of the binding of the physiological neurokinin (Substance P) to neurokinin-1 receptors was determined.
The receptor binding studies were performed with [^3H]-Substance P as ligand. For the binding test, different samples of a membrane preparation of CHO cells (=egg cells of the Chinese hamster, […]), which express the human NK-1 receptor (“Accession Number” of the associated nucleic acid sequence=M74290; “Accession Number” of the associated protein sequence=P25103; cf. Takeda, Y.; Chou, K. B., Takeda, J.; Sachais, B. S. and Krause, J. E; Biochemical and Biophysical Research Communications, 179(3) (1991) 1232-1240), were incubated with a solution of the marked ligand, with the incubation mixtures containing no test substance or additions of different concentrations of test substance. Then, separation of bound and free ligands was performed in each of the samples with the aid of glass-fibre filtration. The fraction remaining in the filter was washed several times with buffer solution and then the radioactivity of the fraction remaining in the filter was measured using a beta scintillation counter.
For the compounds of Examples 1 and 8 to 65, the affinity to human NK-1 receptors was determined in each case by a single measurement of the test substances in a concentration of 10^−7 mol/l.
For the compounds of Examples 2 and 4-6, that concentration which effects half maximum displacement of the bound ligand was determined as IC50 of the respective test substance. From this, the corresponding inhibition constant (Ki value) of the test substance was calculated, and was stated as the negative common logarithm of the Ki value (=pKi value). The pKi value is a measurement of the affinity of the test substances to human NK-1 receptors.

[3] = molecular target: T2, NK-1 receptors (Cavia porcellus, UniProt P30547); assay: Functional NK-1 antagonism on isolated guinea pig aorta rings (inhibition of Substance P-induced relaxation); assay type: cell-based; details: half maximum inhibition of relaxation of tone caused by 0.01 μmol Substance P; phenylephrine-tonicised guinea pig aorta
T2 construct: isolated ring preparations, kept in an oxygenated nutrient solution, of the aortas of Pirbright-White guinea pigs; from tissue; host or cells: isolated aorta rings of Pirbright-White guinea pigs
Description: The action antagonistic to NK-1 receptors of the test substances was measured in vitro on isolated ring preparations, kept in an oxygenated nutrient solution, of the aortas of Pirbright-White guinea pigs. The inhibition by the test substances of the relaxation of tone of the aorta preparations, caused after stimulation with the NK-1 agonist Substance P, was determined.
In order to measure the contraction of the vessel muscles, the preparations were fixed to a hook, joined by a thread to a force measuring apparatus and the contractions were recorded in each case on a plotter. The aorta preparations were tonicised with phenylephrine. Then before and after the administration of the test substance the NK-1 receptors of the preparations were stimulated with 0.01 μmol Substance P, which caused relaxation of the tone. The relaxations before and after the administration of the test substance were quantified in percent. The effective concentration of the half maximum inhibition of the relaxation of the tone (=EC50) was calculated. The negative common logarithm of the EC50 value (=pEC50) was given as characteristic variable. The pEC50 value is a measurement of the functional effectiveness of the test substances on NK-1 receptors.

[4] = tested on: gerbil foot tapping; assay: Gerbil foot tapping test for CNS-permeable NK-1 antagonists; assay type: in vivo; details: doses of up to 30 mg/kg p.o.
[5] = tested on: basal blood pressure; assay: Vasodepressive effects based on calcium-antagonistic properties (action on basal blood pressure); assay type: in vivo; details: guinea pig, i.v. doses of up to 0.1 μmol/kg and p.o. doses of up to 3.2 μmol/kg
Description: The arterial catheter served to measure the blood pressure. The administration of Substance P and, in the case of i.v. administration, also the administration of the test substance, was effected by means of the venous access. After a 20-minute equilibration phase, 50 pmol/animal of Substance P were administered (bolus, i.v.) as a test stimulus. One minute after administration of the test stimulus, in each case the maximum drop in blood pressure induced thereby was determined as a control for the later stimulation of the NK-1 receptors by the test substance. Then the test substance was administered. For the i.v. investigation, the test substance was administered in metered doses of 0.01 to 0.1 μmol/kg. For the p.o. investigation, the test substance was administered in metered doses of 0.1 to 3.2 μmol/kg. Tylose or Tylose/ethanol was used as the vehicle for the p.o. investigations. Then, in each case the extent of the vasodepression inhibited by the test substance was measured, starting 1 minute after administration of test substance, up to 90 minutes after administration of test substance, at intervals of 15 minutes each time. The doses at which, dependent on the time, just 50% inhibition of the Substance P-induced vasodepression occurs due to the test substance were determined from these measured values as ED50 values. […]

T2 sequence (P30547 whole entry): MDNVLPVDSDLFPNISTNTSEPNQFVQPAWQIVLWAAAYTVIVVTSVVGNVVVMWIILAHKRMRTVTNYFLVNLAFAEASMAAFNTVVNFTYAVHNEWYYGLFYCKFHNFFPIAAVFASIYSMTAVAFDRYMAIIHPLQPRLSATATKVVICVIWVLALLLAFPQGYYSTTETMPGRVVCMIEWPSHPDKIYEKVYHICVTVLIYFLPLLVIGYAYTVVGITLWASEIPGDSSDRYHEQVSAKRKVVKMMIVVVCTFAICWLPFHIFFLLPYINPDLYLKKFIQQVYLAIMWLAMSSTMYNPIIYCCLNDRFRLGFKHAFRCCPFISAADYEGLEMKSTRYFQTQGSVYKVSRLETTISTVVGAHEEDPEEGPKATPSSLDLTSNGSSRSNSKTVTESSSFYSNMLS
T1 sequence (P25103 whole entry): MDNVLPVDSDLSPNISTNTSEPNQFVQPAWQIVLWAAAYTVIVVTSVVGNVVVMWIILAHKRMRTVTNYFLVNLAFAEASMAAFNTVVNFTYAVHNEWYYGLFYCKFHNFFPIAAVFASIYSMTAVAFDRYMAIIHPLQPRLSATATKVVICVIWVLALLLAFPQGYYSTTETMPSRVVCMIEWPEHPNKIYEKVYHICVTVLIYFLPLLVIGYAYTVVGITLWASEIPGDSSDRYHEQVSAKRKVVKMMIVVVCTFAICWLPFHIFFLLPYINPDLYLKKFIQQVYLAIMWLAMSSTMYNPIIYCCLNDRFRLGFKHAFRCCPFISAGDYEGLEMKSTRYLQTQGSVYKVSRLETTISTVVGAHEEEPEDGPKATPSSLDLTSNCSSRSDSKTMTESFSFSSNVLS

solubility in water [1]	Ki [2]	EC50 [3]	Structure (SMILES)	typical effects of CNS-permeable NK-1 antagonists [4]	vasodepression (action on basal blood pressure, calcium-antagonistic side-effect) [5]
–	5.01 nM	2 nM	CCN(CC)Cc1n[nH]nc1CN1CCN(C(=O)c2cc(C(F)(F)F)cc(C(F)(F)F)c2)[C@H](Cc2c[nH]c3ccccc23)C1 [Example 5]	–	–
–	3.98 nM	1.26 nM	CC(C)N(Cc1n[nH]nc1CN1CCN(C(=O)c2cc(C(F)(F)F)cc(C(F)(F)F)c2)[C@H](Cc2c[nH]c3ccccc23)C1)C(C)C [Example 6]	–	–
–	–	3.98 nM	Cn1cc(C[C@@H]2CN(Cc3n[nH]nc3CN3CCOCC3)CCN2C(=O)c2cc(C(F)(F)F)cc(C(F)(F)F)c2)c2ccccc21 [Example 3]	–	–
–	5.01 nM	2.51 nM	CN(C)Cc1n[nH]nc1CN1CCN(C(=O)c2cc(C(F)(F)F)cc(C(F)(F)F)c2)[C@H](Cc2c[nH]c3ccccc23)C1 [Example 4, (2R)-1-[3,5-Bis(trifluoromethyl)benzoyl]-2-(1H-indol-3-ylmethyl)-4-{[5-(dimethylaminomethyl)-2H-1,2,3-triazol-4-yl]methyl}piperazine]	–	–

The next lines start with the molecule.

Structure (SMILES)	solubility in water [1]	Ki [2]	EC50 [3]	typical effects of CNS-permeable NK-1 antagonists [4]	vasodepression (action on basal blood pressure, calcium-antagonistic side-effect) [5]
Cl.Cl.O=C(c1cc(C(F)(F)F)cc(C(F)(F)F)c1)N1CCN(Cc2n[nH]nc2CN2CCOCC2)C[C@H]1Cc1c[nH]c2ccccc12 [(2R)-1-[3,5-bis(trifluoromethyl)benzoyl]-2-(1H-indol-3-ylmethyl)-4-{[5-(morpholinomethyl)-2H-1,2,3-triazol-4-yl]methyl}piperazine-dihydrochloride]	comparatively readily soluble in water	–	–	–	–
O=C(c1cc(C(F)(F)F)cc(C(F)(F)F)c1)N1CCN(Cc2n[nH]nc2CN2CCNCC2)C[C@H]1Cc1c[nH]c2ccccc12 [Example 2]	–	3.98 nM	0.794 nM	–	–
O=C(c1cc(C(F)(F)F)cc(C(F)(F)F)c1)N1CCN(Cc2n[nH]nc2CN2CCOCC2)C[C@H]1Cc1c[nH]c2ccccc12 [Example 1, (2R)-1-[3,5-Bis(trifluoromethyl)benzoyl]-2-(1H-indol-3-ylmethyl)-4-{[5-(morpholinomethyl)-2H-1,2,3-triazol-4-yl]methyl}piperazine]	–	–	1 nM	did not exhibit any typical effects of CNS-permeable NK-1 antagonists	no significant vasodepression
